The conditions of this experiment: single subject, forehead sensor, after propofol; FIG. 6B.

Bounds are passed on as bounds.

`CC(C)c1cccc(C(C)C)c1O` [propofol]: the “EDA skin conductance response (SCR) after induction of general anesthesia” value is recorded as < 5 micro-Siemens.

Values taken from US20250213183A1, “SYSTEM AND METHOD OF MONITORING NOCICEPTION AND ANALGESIA DURING ADMINISTRATION OF GENERAL ANESTHESIA” (The General Hospital Corporation, priority 2022, published 2025).
